Like-named read-outs stand apart in the source and are kept apart here.
Key:
DNA-PK [1] = target: T1, DNA-PK (Homo sapiens (Human), UniProt P78527); details: ATP-competitive; Hardcastle et al. (2005); cited from earlier work
DNA-PK [2] = target: T1, DNA-PK; experiment: DNA-PK/biochemical assay (FlashPlate kinase assay); details: 5 μM ATP, 90 min, room temperature; read-out: Binding DNA-PK IC50
Description: […] To this end, 1.5 μg of the DNA-PK/protein complex and 100 ng of biotinylated substrate, such as, for example, PESQEAFADLWKK biotin-NH2 (“biotin-DNA-PK peptide”), in a total volume of 36.5 μl (34.25 mM HEPES/KOH, 7.85 mM Tris-HCl, 68.5 mM KCl, 5 μM ATP, 6.85 mM MgCl2, 0.5 mM EDTA, 0.14 mM EGTA, 0.69 mM DTT, pH 7.4), were incubated at room temperature for 90 min with 500 ng of DNA from calf thymus, 0.1 μCi of 33P-ATP and 1.8% of DMSO per well with or without the test compound. The reaction was stopped using 50 μl/well of 200 mM EDTA. After incubation for a further 30 min at room temperature, the liquid was removed. Each well was washed three times with 100 μl of 0.9% sodium chloride solution. A non-specific reaction (blank value) was determined using 10 μM of a proprietary kinase inhibitor. The radioactivity measurement was carried out by means of a TopCount. IC50 values were calculated in RS1. • Literature: Kashishian et al. (2003) Molecular Cancer Therapeutics 1257.

[3] = tested on: kinases of the PI3K isoenzyme family; details: cited from earlier work
mammal cells = details: Rosenzweig et al. (1999); cited from earlier work

| IC50 (DNA-PK [2]) | SMILES | further results |
| --- | --- | --- |
| – | O=c1cc(N2CCOCC2)oc2c(-c3cccc4c3sc3ccccc34)cccc12 [NU-7441] | IC50 (DNA-PK [1]): 20 nM |
| 100 to 500 nM | COc1ccc(C2CCCN(c3ncnc4cc(N5CCOCC5)ccc34)C2)cc1 (centres unmarked) [compound 3, 4-[3-(4-Methoxy-phenyl)piperidin-1-yl]-7-morpholin-4-yl-quinazoline] | – |
| < 100 nM | O=C(c1nccs1)C1CCCN(c2ncnc3cc(N4CCOCC4)ccc23)C1 (centres unmarked) [compound 50, [1-(7-Morpholin-4-yl-quinazolin-4-yl)-piperidin-3-yl]-thiazol-2-yl-methanone] | – |
| – | CCN1CCN(CC(=O)Nc2ccc(-c3cccc4c(=O)cc(N5CCOCC5)oc34)c3sc4ccccc4c23)CC1 [KU-0060648] | inhibition of PI3K isoenzyme family kinases [3]: potently inhibited |
| 100 to 500 nM | C1=C(c2cccs2)CN(c2ncnc3cc(N4CCOCC4)ccc23)CC1 [compound 37, 7-Morpholin-4-yl-4-(5-thiophen-2-yl-3,6-dihydro-2H-pyridin-1-yl)quinazoline] | – |
| < 100 nM | OC(c1ncco1)C1CCCN(c2ncnc3cc(N4CCOCC4)ccc23)C1 (centres unmarked) [compound 53, [1-(7-Morpholin-4-yl quinazolin-4-yl)-piperidin-3-yl]-oxazol-2-yl-methanol] | – |
| – | O=c1cc(N2CCOCC2)oc2c(-c3ccccc3)cccc12 [LY294002] | increase in sensitivity to ionising irradiation in cellular terms (mammal cells): only a weak increase in sensitivity to ionising irradiation |
| < 100 nM | Cc1csc(C(O)C2CCCN(c3ncnc4cc(N5CCOCC5)ccc34)C2)n1 (centres unmarked) [compound 49, (4-Methylthiazol-2-yl)-[1-(7-morpholin-4-ylquinazolin-4-yl)-piperidin-3-yl]-methanol] | – |
| 500 to 1000 nM | OC1(c2ccccc2)CCCN(c2ncnc3cc(N4CCOCC4)ccc23)C1 (centres unmarked) [compound 15, 1-(7-Morpholin-4-yl-quinazoline-4-yl)-3-phenylpiperidin-3-ol] | – |
| 100 to 500 nM | c1ccc2sc(CC3CCCN(c4ncnc5cc(N6CCOCC6)ccc45)C3)cc2c1 (centres unmarked) [compound 35, 4-(3-Benzo[b]-thiophen-2-ylmethyl-piperidin-1-yl)-7-morpholin-4-yl-quinazoline] | – |
| 100 to 500 nM | c1nc(N2CCCCCC2)c2ccc(N3CCOCC3)cc2n1 [compound 8, 4-Azepan-1-yl-7-morpholin-4-yl-quinazoline] | – |
| 100 to 500 nM | c1ccc([C@@H]2CCCN(c3ncnc4cc(N5CCOCC5)ccc34)C2)cc1 [compound 5, 7-Morpholin-4-yl-4-((S)-3-phenyl-piperidin-1-yl)-quinazoline] | – |
| < 100 nM | O[C@@H](c1nccs1)C1CCCN(c2ncnc3cc(N4CCOCC4)ccc23)C1 (stereo partly drawn) [compound 65, (R)-[1-(7-Morpholin-4-ylquinazolin-4-yl)-piperidin-3-yl]-thiazol-2-yl-methanol] | – |
| < 100 nM | O=C(NC1CCCN(c2nc(Cl)nc3cc(N4CCOCC4)ccc23)C1)c1nccs1 (centres unmarked) [compound 60, N-[1-(2-Chloro-7-morpholin-4-yl-quinazolin-4-yl)-piperidin-3-yl]-thiazole-2-carboxamide] | – |
| < 100 nM | c1cnc(CC2CCCN(c3ncnc4cc(N5CCOCC5)ccc34)C2)nc1 (centres unmarked) [compound 31] | – |
| 100 to 500 nM | CCOCC1CCCN(c2ncnc3cc(N4CCOCC4)ccc23)C1 (centres unmarked) [compound 18, 4-(3-Ethoxymethyl-piperidin-1-yl)-7-morpholin-4-yl-quinazoline] | – |
| < 100 nM | Cc1nc(CC2CCCN(c3ncnc4cc(N5CCOCC5)ccc34)C2)sc1C (centres unmarked) [compound 52, 4-[3-(4,5-Dimethyl-thiazol-2-ylmethyl)-piperidin-1-yl]-7-morpholin-4-yl-quinazoline] | – |
| < 100 nM | Clc1nc(N2CCCC(Cn3cccc3)C2)c2ccc(N3CCOCC3)cc2n1 (centres unmarked) [compound 30, 2-Chloro-7-morpholin-4-yl-4-(3-pyrrol-1-ylmethyl-piperidin-1-yl)-quinazoline] | – |
| 100 to 500 nM | FC(F)(F)c1cccc(C2CCCN(c3ncnc4cc(N5CCOCC5)ccc34)C2)c1 (centres unmarked) [compound 28, 7-Morpholin-4-yl-4-[3-(3-trifluoromethyl-phenyl)piperidin-1-yl]quinazoline] | – |
| < 100 nM | c1nc(N2CCCC(Cc3ccsc3)C2)c2ccc(N3CCOCC3)cc2n1 (centres unmarked) [compound 44] | – |

From patent publication US9126952B2, “Morpholinylquinazolines” (Merck Patent GmbH, priority 2010, dated 2015)
